Results on eleven molecules are retold here after PubChem BioAssay (NCI).

What all share (assay): NCI tumour cell line growth inhibition, 48 h
Test [1] deals with 786-0 renal.
In test [2] the test system is ACHN renal.
For test [3], the system named is CCRF-CEM leukemia.
The test system of test [4] is DU-145 prostate.
Test [5] deals with HCC-2998 colon.
Test [6] concerns HOP-92 NSCLC.
Test [7] has as its system LOX IMVI melanoma.
In test [8] the test system is NCI-H226 lung.
The test system of test [9] is OVCAR-5 ovarian.
The subject of test [10] is OVCAR-8 ovarian.

The structures appear in SMILES notation.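 Following 48 hours of exposure in 96-well plates, responses at five concentrations were used to interpolate endpoints linearly. Here, GI50 denotes the concentration required for 50% inhibition of growth. TGI is the concentration that stops growth completely.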

Regarding `CC(=O)OC/C=C/Cn1nc(Br)c(=O)[nH]c1=O`, the TGI in test [1], in test [2], in test [3], in [4], in [5] and in test [6] was more than 100 µM in each case. For the same molecule, the TGI in test [7], in test [8], in test [9] and in test [10] was more than 100 µM throughout.
Take `CO[C@@H](c1ccccc1)[C@H](O)[C@@](O)(c1ccccc1)P(=O)(OC)OC`: the TGI in [1], in test [2], in test [3], in test [4], in test [6] and in test [7] was more than 100 µM each time. Moreover, the TGI in test [8], in test [9] and in test [10] was more than 100 µM in each case.
Turning to `CNc1nc(OC)c2c(n1)[n+](C)cn2C`, the TGI in test [1], in test [2], in [3], in test [4], in test [6] and in test [7] was more than 100 µM throughout. Besides, the TGI in test [8], in test [9] and in test [10] was more than 100 µM in each case.
Consider `COc1ccc(NC(=S)Nc2cccc(C)n2)cc1`, for which the TGI in test [1], in test [2], in test [3], in [4], in test [5] and in test [6] was more than 100 µM throughout. The TGI in [7], in test [8] and in test [10] was more than 100 µM throughout.
As for `Cc1ccc(C(=O)C2CC3(CCC2(O)c2ccc(C)cc2)CC(=O)Nc2ccccc2C3=O)cc1` (stereo not drawn), the TGI in [3], in test [4], in test [5], in test [6], in test [7] and in test [8] was more than 100 µM each time. The TGI in test [9] and in [10] was more than 100 µM throughout.
Consider `CC1SCCc2nc3ccccc3n21` (stereo not drawn), for which the TGI in test [1], in [3], in test [4], in [5], in test [6] and in [7] was more than 100 µM each time. Besides, the TGI in test [8], in test [9] and in test [10] was more than 100 µM throughout.
In the case of `Cc1cc(N(CCCl)CCCl)ccc1/C=N\NC(=O)c1cccnc1`, the GI50 was 10.7 µM in test [2]; 9.23 µM in [3]; 15.1 µM in test [4]; 25 µM in test [5]; 17.3 µM in [6]; 15.6 µM in test [7]. The GI50 was 1.11 µM in [8], 12 µM in [9] and 25.9 µM in [10]. For the same molecule, the TGI in test [2] is more than 100 µM; in test [3] it was more than 100 µM; in [4], 99 µM; in test [5], 97.6 µM; in [6], 59.3 µM; in test [7], 99.4 µM. The TGI is 2.8 µM in test [8], 60 µM in [9] and more than 100 µM in test [10].
For the molecule `COc1cc(CC2C(=O)OCC2Cc2ccc(OC)c(OC)c2)ccc1O` (stereo not drawn), the TGI in test [1], in test [2], in test [3], in test [4], in test [6] and in test [7] was more than 100 µM each time. Moreover, the TGI in [8], in [9] and in test [10] was more than 100 µM throughout.
On to `Oc1[nH]c2ccccc2c1N=Nc1nc(-c2ccccc2)cs1`, for which the TGI in test [1], in test [2], in test [4], in test [5], in [6] and in test [7] was more than 100 µM each time. The TGI in test [8], in test [9] and in [10] was more than 100 µM each time.
In the case of `CCCSC1=N/C(=C\c2ccco2)C(=O)N1`, the TGI in test [1], in [2], in test [4], in [5], in test [6] and in test [7] was more than 100 µM in each case. Further, the TGI in [8], in test [9] and in test [10] was more than 100 µM each time.
Consider `CC(=O)Oc1cc(OC(C)=O)c2c(c1C)CC[C@@H]1[C@@H]2CC[C@]2(C)[C@@H](OC(C)=O)CC[C@@H]12`, for which the TGI in [1] came to 34.8 µM; in test [2], 31.2 µM; in test [3], 49.4 µM; in [4] it was 61 µM; in [5] it was 36.6 µM; in [6] it was 35.2 µM. Also, the TGI in [7] was found to be 34.2 µM; in test [8] it was 34.2 µM; in [10], 42.4 µM.
